From patent US20150327444A1, “PROCESS FOR THE OVERPRODUCTION OF SHIKIMIC ACID AND PHENOLIC ACIDS IN FRUIT AND VEGETABLE CROPS” (Instituto Tecnologico y de Estudios Superiores de Monterry, priority 2013, published 2015)

Columns and labels:
carrots (Daucus carota) [1] = experiment: Effect of drying on SA and PC in wounding-stressed, glyphosate-sprayed carrot tissue (Example 7); conditions: for Increase in concentration in dehydrated glyphosated grated material stored for 24 hours: vs grated carrot prior to storage (0 hours)
Method: (§1) The plant material used in this example comprised carrots (Daucus carota) obtained from a local supermarket (Monterrey, N. L., Mexico), which were washed and disinfected with chlorinated water in a concentration of 200 ppm, pH 6.5, in a ratio of 1:3 kg of plant material:liters of chlorinated water, for 10 min. This stage was carried out by grating the carrot with a commercial vegetable grater.

carrots (Daucus carota) [2] = experiment: Effect of grinding on SA and PC in wounding-stressed, glyphosate-sprayed carrot tissue (Example 8)
Method: as §1, with “min.” for “min. This stage was carried out by grating the carrot with a commercial vegetable grater.”
(§2) This stage was carried out by grating the carrot with a commercial vegetable grater. Stressed grated carrots having a diameter of 0.7 cm were obtained.
(§3) In this stage, the stressed grated plant tissue was treated by spraying (commercial sprayer) 100 mL of a concentrated solution of glyphosate (482 g/L).
The treated grated material was incubated at 25° C. […] at atmospheric pressure with a relative humidity of 65%, in total darkness, to determine the combined effect of wounding stress and glyphosate application on the accumulation of SA and PC.

carrots (Daucus carota) [3] = experiment: Overproduction of SA and PC by wounding stress and sprayed glyphosate 482 g/L in carrot tissue (Example 6)
Method: as §1, with “min.” for “min. This stage was carried out by grating the carrot with a commercial vegetable grater.”
as §2, §3
Finally, the treated grated material was incubated at 25° C. for 24 hours at atmospheric pressure with a relative humidity of 65%, in total darkness, to determine the combined effect of wounding stress and glyphosate application on the accumulation of SA and PC.

carrots (Daucus carota) [4] = experiment: Effect of wounding stress on accumulation of SA in grated carrot during storage (Example 1); conditions: vs grated carrot prior to storage (0 hours); 25° C., no glyphosate
Method: as §1, with “min.” for “min. This stage was carried out by grating the carrot with a commercial vegetable grater.”
Stage a) The previously washed and disinfected carrots were subjected to post-harvest abiotic stress.
as §2
Stage b) Incubation of the grated carrot stressed in a) to encourage the production and accumulation of SA and PC. […]
The SA was extracted from the horticultural crop using two different processes based on the method of detection and quantification which was to be used (spectrophotometry or chromatography). […]
The SA extracts were analyzed following a method reported by Zelaya, I. A., Anderson, J. A., Owen, M. D. and Landes, R. D. Evaluation of spectrophotometric and HPLC methods for shikimic acid determination in plants: models in glyphosate-resistant and susceptible crops. […] The SA oxidized through the effect of the reaction was detected at 382 nm using a microplates reader (Synergy HT, Bio-Tek Instruments Inc., Winooski, Vt., USA). A standard curve for SA was constructed (1-1000 μM) to quantify the compound. […]

carrots (Daucus carota) [5] = experiment: Effect of grinding on accumulation of SA in wounding-stressed grated carrot (Example 3); conditions: vs grated carrot prior to storage (0 hours)
Method: as §1, with “min.” for “min. This stage was carried out by grating the carrot with a commercial vegetable grater.”
(§4) This stage was carried out by grating the carrot with a commercial vegetable grater. Stressed grated carrots having a diameter of 0.7 cm were obtained. […]
(§5) The SA extracts were analyzed following a method reported by Zelaya, I. A., Anderson, J. A., Owen, M. D. and Landes, R. D. Evaluation of spectrophotometric and HPLC methods for shikimic acid determination in plants: models in glyphosate-resistant and susceptible crops. […] The SA oxidized through the effect of the reaction was detected at 382 nm using a microplates reader (Synergy HT, Bio-Tek Instruments Inc., Winooski, Vt., USA). A standard curve for SA was constructed (1-1000 μM) to quantify the compound. The SA concentration was expressed as mg per kg of carrots in dry base (DB). The moisture content in the samples was determined by the method of drying in a stove (AACC 44-15A).

carrots (Daucus carota) [6] = experiment: Effect of drying on accumulation of SA in wounding-stressed grated carrot (Example 2); conditions: vs grated carrot prior to storage (0 hours)
Method: as §1, with “min.” for “min. This stage was carried out by grating the carrot with a commercial vegetable grater.”
as §4, §5

carrots (Daucus carota) [7] = experiment: Effect of method of application (submergence or spraying) of glyphosate solution on SA accumulation in grated carrot (Example 4); conditions: glyphosate 482 g/L, 24 hours at 25° C.
Text: This difference is attributed to the removal of signal molecules which induce the response to the wounding as part of the submergence process. The (at least partial) removal of extracellular adenosine triphosphate (eATP, produced by the wounding stress effect) occurs in the submerged material, and this may be related to lesser generation of reactive oxygen species (ROS), thus reducing the yield of SA in comparison with application by spraying. Abiotic wounding stress activates the metabolic pathways involved in the production of phenolic compounds while the application of glyphosate makes it possible to block the flow of SA to the production of other compounds, thus bringing about an accumulation of SA in the horticultural crop. Thus the wounded carrots have been treated with a solution of glyphosate (0-482 g/L) using one of the two different methods of application (submergence and spraying), the spraying method being preferred because of its better yields, and stored for 24 hours to determine the combined effect of wounding stress and glyphosate application on the accumulation of SA and PC. In the first (submerged) method of application the grated material was submerged in a ratio of 1:2 to 1:4 (kg of plant material:liters of glyphosate solution), in such a way that said material was wholly submerged in the glyphosate solution. […]

carrots (Daucus carota) [8] = experiment: HPLC-PDA quantification of SA and individual phenolic compounds in grated carrot sprayed with glyphosate at different concentrations (Example 5); conditions: after 24 hours' storage; estimated from HPLC-PDA
[9] = vs grated carrot before storage (0 hours)
[10] = sprayed 482 g/L glyphosate, vs control samples (0 hours)

| SMILES | Increase in content in the 482 g/L glyphosate treatment (carrots (Daucus carota) [1]; vs control samples at 24 hours) | Increase in concentration in dehydrated glyphosated grated material stored for 24 hours (carrots (Daucus carota) [1]) | Increase in content in the 482 g/L glyphosate treatment (carrots (Daucus carota) [2]; vs control samples at 24 hours) | Increase in concentration in dehydrated glyphosated grated material stored for 24 hours (carrots (Daucus carota) [2]; [9]) | Increase in concentration on spraying a concentrated solution of glyphosate onto carrot tissue stressed by wounding (carrots (Daucus carota) [3]) | Increase in content in the 482 g/L glyphosate treatment (carrots (Daucus carota) [3]; vs control samples at 24 hours) | Increase in concentration in grated carrot stored for 24 hours (carrots (Daucus carota) [4]) | Increase in concentration in nutraceutical powder stored for 24 hours (carrots (Daucus carota) [5]; after drying and grinding) | Increase in concentration in grated carrot stored for 24 hours (carrots (Daucus carota) [5]; no glyphosate) | Increase in concentration after 24 hours' storage (carrots (Daucus carota) [1]; [10]) | Increase in concentration after 24 hours of storage (carrots (Daucus carota) [2]; [10]) | Increase in concentration in glyphosated powder stored for 24 hours (carrots (Daucus carota) [2]; [9]) | Increase in concentration in dehydrated nutraceutical grated material stored for 24 hours (carrots (Daucus carota) [6]; after drying) | Increase in concentration in grated carrot stored for 24 hours (carrots (Daucus carota) [6]; no glyphosate) | Increase in accumulation, grated carrot sprayed with glyphosate vs submerged samples (carrots (Daucus carota) [7]) | Increase in concentration in grated carrot not sprayed with glyphosate (carrots (Daucus carota) [8]) | Increase in concentration after 24 hours of storage (carrots (Daucus carota) [3]; [10]) |
| --- | --- | --- | --- | --- | --- | --- | --- | --- | --- | --- | --- | --- | --- | --- | --- | --- | --- |
| O=C(/C=C/c1ccc(O)c(O)c1)O[C@@H]1C[C@](O)(C(=O)O)C[C@@H](O)[C@H]1O (single isomer, unassigned) [CA, chlorogenic acid] | ~1930% | ~1700% | ~1940% | ~11620% | > 5000% | ~1980% |  |  |  |  |  |  |  |  |  |  |  |
| O=C(O)C1=C[C@@H](O)[C@@H](O)[C@H](O)C1 (single isomer, unassigned) [SA, shikimic acid] |  | ~1550% |  |  | more than 1000% |  | ~50% | ~37% | ~48% | ~1766% | ~1720% | ~1470% | ~40% | ~45% | ~44% and ≈ 44% | ~77% | ~1735% |
